Results as given in patent publication US6908912B2, “Pyrithione biocides enhanced by zinc metal ions and organic amines” (priority 1999, dated 2005).
Values joined by “and” are separate entries in the source; they are usually repeats but may differ in a detail not shown here. Equal values may be shown once. Read-outs that look alike come from different tables or passages of the source.

What was measured:
[1] = system: Fusarium sp. and Cephalosporium sp. metalworking fluid field isolates; test: Efficacy against fungi in diluted (1:20) metalworking fluids, flask test (Examples 1-40); assay type: cell-based
[2] = Solubility and stability of concentrated mixtures of sodium pyrithione, ZnCl2 and organic amines (Example 55); details: for solubility and stability of mixture after 24 and 72 hours: mixtures of sodium pyrithione, ZnCl2 and the named amine
[3] = system: Fusarium sp and Cephalosporium sp.; test: Prevention of fungal contamination of metalworking fluid, repeated challenge (Example 53); assay type: cell-based, fungi
[4] = system: Fusarium sp and Cephalosporium sp.; test: Culture tube test with formaldehyde releasing biocide, viable fungal counts (Example 52); assay type: cell-based, fungi
[5] = system: Klebsiella pnenmoniae bacteria; details: cited from earlier work
[6] = Blue discoloration of metalworking fluids in the presence of iron ions, visual inspection (Example 54); assay type: physicochemical
[7] = system: Pseudomonas aeruginosa 9027, Escherichia coli 8739, Pseudomonas fluorescens 12201, Pseudomonas rubescens 12202, and Pseudomonas putida; assay type: cell-based, bacteria
[8] = system: Pseudomonas aeruginosa, Escherichia coli, Pseudomonas fluorescens, Pseudomonas rubescens, and Pseudomonas putida; assay type: cell-based, bacteria
[9] = Semi-Synthetic Fluid diluted 1:20, final 100 PPM NaPT, 21 PPM ZnCl2, 600 PPM amine or 1000 PPM Mixture as applicable
[10] = Soluble Oil diluted 1:20, final 100 PPM NaPT, 21 PPM ZnCl2, 600 PPM amine or 1000 PPM Mixture as applicable
[11] = Synthetic Fluid diluted 1:20, final 100 PPM NaPT, 21 PPM ZnCl2, 600 PPM amine or 1000 PPM Mixture as applicable
[12] = Semi-synthetic MWF, Triazine 196 PPM ai TZ
[13] = Semi-synthetic MWF, Triazine 393 PPM ai TZ
[14] = Semi-synthetic MWF, Triazine 785 PPM ai TZ

Compound: 1-amino-2-propanol [Mixture 1A2P]
- Fungi/ml Day 1 [1, 9]: 4.7 × 10^4 Fungi/ml
- Fungi/ml Day 4 [1, 9]: 5.0 × 10^4 Fungi/ml
- Fungi/ml Day 1 [1, 10]: 4.6 × 10^4 Fungi/ml
- Fungi/ml Day 4 [1, 10]: 2.5 × 10^4 Fungi/ml
- Fungi/ml Day 1 [1, 11]: 5.5 × 10^4 Fungi/ml
- Fungi/ml Day 4 [1, 11]: 3.6 × 10^4 Fungi/ml

Compound: NCCCN [1,3-Diaminopropane]
- Appearance at 24 Hrs [2]: S
- Appearance at 72 Hrs [2]: S

Compound: NCCOCCO [2(2-Aminoethoxy)ethanol]
- solubility and stability of mixture after 24 and 72 hours ([2]; room temperature): precipitates

Compound: CCC(N)(CO)CO [2-Amino-2-ethyl-1,3-propanediol]
- solubility and stability of mixture after 24 and 72 hours ([2]; room temperature): precipitates

Compound: COCCCN [3-methoxypropylamine]
- solubility and stability of mixture after 24 and 72 hours ([2]; room temperature): soluble mixtures after 24 hours but not after 72 hours

Compound: NCCNCCN [Diethylenetriamine]
- Appearance at 24 Hrs [2]: S
- Appearance at 72 Hrs [2]: S

Compound: CC(O)CNCC(C)O (stereo not drawn) [Diisopropanolamine]
- solubility and stability of mixture after 24 and 72 hours ([2]; room temperature): precipitates

Compound: NCCO [MEA, monoethanolamine]
- Fungi/ml Day 1 [1, 9]: 4.3 × 10^4 Fungi/ml
- Fungi/ml Day 4 [1, 9]: 7.0 × 10^4 Fungi/ml
- Fungi/ml Day 1 [1, 10]: 2.9 × 10^4 Fungi/ml
- Fungi/ml Day 4 [1, 10]: 1.0 × 10^4 Fungi/ml
- Fungi/ml Day 1 [1, 11]: 4.7 × 10^4 Fungi/ml
- Fungi/ml Day 4 [1, 11]: 3.6 × 10^4 Fungi/ml

Compound: CCCNCCO [Propylethanolamine]
- Appearance at 24 Hrs ([2]; mixture of NaPT 10.00, ZnCl2 1.74, organic amine(s) 60.50, water 27.76 weight %, room temperature): S

Compound: OCCN1CN(CCO)CN(CCO)C1 [Triazine, hexahydro-1,3,5-tris(2-hydroxyethyl)-s-triazine]
- Fungi/ml Week 4 [3, 12]: 3.6 × 10^4 Fungi/ml
- Fungi/ml Week 9 [3, 12]: 6.2 × 10^4 Fungi/ml
- Fungi/ml Week 4 [3, 13]: 0 Fungi/ml
- Fungi/ml Week 9 [3, 13]: 70 Fungi/ml
- Fungi/ml Week 4 [3, 14]: 0 Fungi/ml
- Fungi/ml Week 9 [3, 14]: 0 Fungi/ml
- Fungi/ml Day 3 ([4]; Soluble oil MWF, Triazine 49 PPM ai TZ): 3.0 × 10^3 Fungi/ml
- Fungi/ml Day 3 ([4]; Soluble oil MWF, Triazine 98 PPM ai TZ): 1.1 × 10^3 Fungi/ml
- Fungi/ml Day 3 ([4]; Soluble oil MWF, Triazine 196 PPM ai TZ): 100 Fungi/ml
- Fungi/ml Day 3 ([4]; Soluble oil MWF, Triazine 393 PPM ai TZ): 0 Fungi/ml
- Fungi/ml Day 3 ([4]; Soluble oil MWF, Triazine 589 PPM ai TZ): 0 Fungi/ml
- Fungi/ml Day 3 ([4]; Soluble oil MWF, Triazine 785 PPM ai TZ): 0 Fungi/ml

Compound: On1ccccc1=S [pyrithione, 1-hydroxy-2-pyridinethione]
- activity against Klebsiella pnenmoniae bacteria [5]: favorable enhancement

Compound: sodium pyrithione [NaPT]
- Initial Blue Color [6]: light and dark and blue
- Bacteria/ml Day 1 [7]: 4.0 × 10^5 Bacteria/ml and 5.2 × 10^6 Bacteria/ml and 4.3 × 10^6 Bacteria/ml
- Bacteria/ml Day 4 [7]: 3.0 × 10^5 Bacteria/ml and 3.7 × 10^7 Bacteria/ml and 6.0 × 10^6 Bacteria/ml
- Bacteria/ml Week 4 [8]: 3.2 × 10^6 Bacteria/ml
- Bacteria/ml Week 9 [8]: 6.1 × 10^6 Bacteria/ml
- Fungi/ml Day 1 [1]: 5.1 × 10^4 Fungi/ml and 7.0 × 10^4 Fungi/ml and 5.7 × 10^4 Fungi/ml
- Fungi/ml Week 4 [3]: 8.9 × 10^4 Fungi/ml
- Fungi/ml Week 9 [3]: 5.6 × 10^4 Fungi/ml
- Fungi/ml Day 3 [4]: 7.7 × 10^4 Fungi/ml and 4.1 × 10^4 Fungi/ml

Compound: zinc chloride [ZnCl2]
- Fungi/ml Day 1 [1]: 7.7 × 10^4 Fungi/ml and 5.9 × 10^4 Fungi/ml and 5.2 × 10^4 Fungi/ml
- Fungi/ml Day 4 [1]: 4.3 × 10^4 Fungi/ml and 3.2 × 10^4 Fungi/ml and 3.1 × 10^4 Fungi/ml
